Measurements from ChEMBL document CHEMBL1201862, “PubChem BioAssay data set” (2004).
Active and inactive are the calls of the source.

Assays:
Trypsin = Trypsin (Sus scrofa, UniProt P00761); test: trypsin protease activity blockade – biochemical, quenched peptide fluorescence, cherry-pick, selectivity assay for Rce1 protease inhibitor project, dose response (AID 488789)
[1] = biological target: T1, Neuropeptides B/W receptor type 1 (Homo sapiens, UniProt P48145); test: human NPBW1 receptor blockade, IC50 – cell-based, fluorescence, dose response, late-stage follow-up (AID 463251); format: functional
T1 sequence (P48145 whole entry): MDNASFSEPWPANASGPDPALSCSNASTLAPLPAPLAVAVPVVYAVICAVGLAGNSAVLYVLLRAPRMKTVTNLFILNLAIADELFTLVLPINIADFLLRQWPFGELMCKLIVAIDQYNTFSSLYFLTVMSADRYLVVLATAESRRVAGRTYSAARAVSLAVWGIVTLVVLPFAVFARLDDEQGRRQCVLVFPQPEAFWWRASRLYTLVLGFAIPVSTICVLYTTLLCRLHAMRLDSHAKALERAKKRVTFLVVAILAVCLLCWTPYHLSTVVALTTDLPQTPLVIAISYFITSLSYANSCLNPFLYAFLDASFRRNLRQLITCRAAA

[2] = biological target: Melanin-concentrating hormone receptor 1 (Homo sapiens, UniProt Q99705); test: Late-stage fluorescence-based counterscreen for antagonists of the G-protein coupled receptor 7 (GPR7): cell-based dose response assay to identify antagonists of the melanin-concentrating hormone receptor 1 (MCHR1). [Related pubchem assays (depositor defined):AID1861, AID1880, AID1952, AID2148, AID2251, AID2257, AID485339]; format: functional;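 also: stimulated with 30 nM MCH peptide agonist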
Sequence of Melanin-concentrating hormone receptor 1 (Q99705 whole entry): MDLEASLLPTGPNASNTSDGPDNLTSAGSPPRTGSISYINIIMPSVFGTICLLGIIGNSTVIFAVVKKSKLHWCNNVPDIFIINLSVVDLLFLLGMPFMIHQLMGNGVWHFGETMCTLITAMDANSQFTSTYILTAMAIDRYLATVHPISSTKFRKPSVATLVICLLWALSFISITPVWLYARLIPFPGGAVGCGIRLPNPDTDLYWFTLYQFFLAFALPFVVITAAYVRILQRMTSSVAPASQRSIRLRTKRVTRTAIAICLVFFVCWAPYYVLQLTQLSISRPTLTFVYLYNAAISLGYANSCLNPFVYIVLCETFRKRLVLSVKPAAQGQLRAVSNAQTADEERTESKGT

[3] = biological target: T2, Mannose-6-phosphate isomerase (Homo sapiens, UniProt P34949); test: phosphomannose isomerase inhibition – biochemical, fluorescence intensity, confirmation (AID 1535)
T2 sequence (P34949 whole entry): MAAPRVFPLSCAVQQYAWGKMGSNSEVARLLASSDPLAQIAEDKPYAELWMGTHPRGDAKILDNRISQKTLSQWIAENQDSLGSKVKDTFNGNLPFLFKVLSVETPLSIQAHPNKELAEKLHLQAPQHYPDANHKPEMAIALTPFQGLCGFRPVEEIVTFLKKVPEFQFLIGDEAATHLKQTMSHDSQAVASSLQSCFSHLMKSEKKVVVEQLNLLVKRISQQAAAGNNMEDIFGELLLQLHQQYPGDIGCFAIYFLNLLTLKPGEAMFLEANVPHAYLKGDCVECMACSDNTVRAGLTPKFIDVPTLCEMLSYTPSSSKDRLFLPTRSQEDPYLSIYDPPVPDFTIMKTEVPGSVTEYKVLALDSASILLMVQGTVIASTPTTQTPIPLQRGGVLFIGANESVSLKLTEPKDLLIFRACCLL

[4] = biological target: Phosphoethanolamine/phosphocholine phosphatase (Homo sapiens, UniProt Q8TCT1); test: SAR assay for compounds that inhibit PHOSPHO1. [Related pubchem assays (depositor defined):AID1545, AID1565, AID1574]
Sequence of Phosphoethanolamine/phosphocholine phosphatase (Q8TCT1 whole entry): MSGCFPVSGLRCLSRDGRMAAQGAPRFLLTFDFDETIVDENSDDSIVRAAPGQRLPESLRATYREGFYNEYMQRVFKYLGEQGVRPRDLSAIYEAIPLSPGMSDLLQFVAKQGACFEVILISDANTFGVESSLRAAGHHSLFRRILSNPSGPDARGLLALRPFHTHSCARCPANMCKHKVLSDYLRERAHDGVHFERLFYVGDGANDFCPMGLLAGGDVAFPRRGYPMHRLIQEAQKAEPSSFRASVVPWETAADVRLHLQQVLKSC

Phosphomannomutase 2 = Phosphomannomutase 2 (Homo sapiens, UniProt O15305); test: Counter screen SAR assay for PMM2 inhibitors via a fluorescence intensity assay. [Related pubchem assays (depositor defined):AID1545, AID1574]
Sequence of Phosphomannomutase 2 (O15305 whole entry): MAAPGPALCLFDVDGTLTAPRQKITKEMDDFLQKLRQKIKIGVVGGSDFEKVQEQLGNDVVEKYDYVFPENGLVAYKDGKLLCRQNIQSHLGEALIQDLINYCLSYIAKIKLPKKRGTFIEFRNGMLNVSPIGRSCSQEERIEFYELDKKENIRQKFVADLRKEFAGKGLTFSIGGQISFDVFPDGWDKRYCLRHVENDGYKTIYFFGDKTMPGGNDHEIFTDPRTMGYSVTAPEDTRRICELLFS

Sequence of Trypsin (P00761 whole entry): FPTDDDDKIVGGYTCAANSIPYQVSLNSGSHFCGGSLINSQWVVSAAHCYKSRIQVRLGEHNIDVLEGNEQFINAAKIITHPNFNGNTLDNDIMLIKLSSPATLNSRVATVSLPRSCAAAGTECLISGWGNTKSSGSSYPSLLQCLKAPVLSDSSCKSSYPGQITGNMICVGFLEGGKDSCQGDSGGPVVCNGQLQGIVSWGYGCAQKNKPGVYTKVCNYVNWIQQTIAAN

## Cc1ccc(C(=O)N2N=C(c3ccccc3O)CC2c2ccccc2)cc1 (stereo unspecified)
Trypsin
  AC50: 67.6 µM (active)

## COc1ccc(Oc2c(Cl)cnn(-c3ccc(I)cc3)c2=O)cc1
[1]
  IC50: 1 µM (active)
[2]
  IC50: 4.7 µM (active)

## O=c1c2ccc(F)cc2sn1-c1cccc(Cl)c1Cl
[3]
  IC50: > 50 µM (inactive)
[4]
  IC50: 359 nM (active)
Phosphomannomutase 2
  IC50: > 100 µM (inactive)
